In US10017546B2 (KOREA ADVANCED INSTITUTE OF SCIENCE AND TECHNOLOGY, priority 2015, dated 2018):
Like-named read-outs stand apart in the source and are kept apart here.

What was measured:
[1] = target: Rhizobium etli rhizavidin variant monodin (MA), monomeric, A67D/G71K/A82N/G84Q/S101R/A105K + S23H/Q46E/E115W, SEQ ID NO: 3 (Rhizobium etli, UniProt Q8KKW2, A102N/A125K/A87D/E135W/G104Q/G91K/Q66E/S121R/S43H); test: [^3H]biotin off-rate assay, monodin; type: binding; details: free [^3H]biotin, excess cold biotin, 37° C.
Method: [^3H]Biotin Off-Rate Assay
At time-points taken over 5 h at 37° C., 150 μL of aliquots were removed, and added to 600 μL of 0.2 M ZnSO4 (chilled with ice), followed by addition of 600 μL of 0.2 M NaOH. […] Dissociation rates were deduced as discussed above.

biotin-DNA = test: Gel-based off-rate measurement against biotin-DNA-fluorescein; type: binding; details: 10 h
biotin-GFP = biotin-GFP (Aequorea victoria, UniProt P42212, A206V/E111V/F223Y/F64L/F99S/I128T/I167V/I171V/K158E/K166T/K26E/L221H/M153T/N105K/N149D/N164E/Q80R/S205T/S30R/S65T/T225N/V163A/Y145F/Y39I); details: Biotin-GFP
Method: After incubation at the indicated temperature (23° C., 37° C., or 45° C.) for varying time points (between 0 to 10 h), protein-conjugate mixtures were loaded onto a 15% native polyacrylamide gel. […] Data as ln(fraction bound) versus time and fitting the data to a straight line by linear regression.

HeLa cells = test: Clustering and internalization of biotinylated cell-surface proteins; type: cell-based; details: Cy5-labeled avidin proteins, 37° C.
Method: Following biotinylation, the cells were washed twice with cold PBS-CM, treated with 100 mM glycine in PBS-CM for blocking, and washed again twice with cold PBS. […] Unbound avidin proteins were removed, and media was replaced with pre-warmed DMEM (37° C.). Cells were incubated for 5, 10, or 30 m at 37° C. Cells were washed, and fixed with 4% formaldehyde in PBS for confocal imaging (ZEISS, LSM510 META). To visualize endosome or lysozome-specific proteins, cells were fixed, permeabilized, and incubated with a primary antibody: anti-Rab11 (a GTPase of recycling endosome, Abcham) or anti-LAM P1 (Lysosomal-associated membrane protein 1, Abcham). Afterward, cells were incubated with a fluorescent secondary antibody (goat anti-rabbit 555, Abcham), and images were acquired with a confocal microscopy (ZEISS, LSM510 META).

[2] = target: Rhizobium etli rhizavidin variant monodin (MA, MA-His6), monomeric, A67D/G71K/A82N/G84Q/S101R/A105K + S23H/Q46E/E115W, SEQ ID NO: 3 (Rhizobium etli, UniProt Q8KKW2, A102N/A125K/A87D/E135W/G104Q/G91K/Q66E/S121R/S43H); test: Kd measurement by competition binding for [^3H]biotin against RAWH, monodin
Method: (§1) Mixtures were incubated at 37° C. for 20 h to reach equilibration. […] After 1 h incubation at room temperature, the beads were cleared by centrifugation at 13,000 rpm for 1 min. […] Samples were heated to 95° C. for 30 min, and then counted in a liquid scintillation counter. The Kd ratios between competing avidin proteins were calculated with Matlab (Mathworks) using the foregoing formula (Qureshi, M. H. & Wong, S. L. Protein Expr. Purif. 25, 409-415 (2002)).

[3] = target: Rhizobium etli rhizavidin variant RAWH (RAWH-His6), E115W/S23H (Rhizobium etli, UniProt Q8KKW2, E135W/S43H); test: Kd measurement by competition binding for [^3H]biotin against streptavidin, RAWH
Sequence of Rhizobium etli rhizavidin variant RAWH (RAWH-His6), E115W/S23H (Q8KKW2 entry or part of it S43H/E135W): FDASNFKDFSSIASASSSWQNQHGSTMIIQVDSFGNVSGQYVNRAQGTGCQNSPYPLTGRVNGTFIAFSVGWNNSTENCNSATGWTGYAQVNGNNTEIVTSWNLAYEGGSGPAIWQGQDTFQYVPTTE
Method: as §1

Sequence of Rhizobium etli rhizavidin variant monodin (MA), monomeric, A67D/G71K/A82N/G84Q/S101R/A105K + S23H/Q46E/E115W, SEQ ID NO: 3 (Q8KKW2 entry or part of it S43H/Q66E/A87D/G91K/A102N/G104Q/S121R/A125K/E135W): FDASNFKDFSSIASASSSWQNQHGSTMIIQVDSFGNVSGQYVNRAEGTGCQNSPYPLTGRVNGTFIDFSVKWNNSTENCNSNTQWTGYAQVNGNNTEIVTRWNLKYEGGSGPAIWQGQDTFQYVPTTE
Sequence of Rhizobium etli rhizavidin variant monodin (MA, MA-His6), monomeric, A67D/G71K/A82N/G84Q/S101R/A105K + S23H/Q46E/E115W, SEQ ID NO: 3 (Q8KKW2 entry or part of it S43H/Q66E/A87D/G91K/A102N/G104Q/S121R/A125K/E135W): as above

| Compound | percentage of dissociated biotin conjugate after 10 h incubation with excess biotin (biotin-DNA; 23° C.) | percentage of dissociated biotin conjugate after 10 h incubation with excess biotin (biotin-DNA; 37° C.) | percentage of dissociated biotin conjugate after 10 h incubation with excess biotin (biotin-GFP; 23° C.) | percentage of dissociated biotin conjugate after 10 h incubation with excess biotin (biotin-GFP; 37° C.) | further results |
| --- | --- | --- | --- | --- | --- |
| O=C(O)CCCC[C@@H]1SC[C@@H]2NC(=O)N[C@@H]21 [[^3H]biotin] [listing 1 of 2 here] | – | – | – | – | off-rate [1]: 1.2±0.3×10^−5 s^−1 |
| Streptavidin (STA): tetrameric streptavidin, purchased from Abcam [reference compound] | 6.8 ± 1.8% for 10 h* | 17 ± 1% for 10 h* | 4.7 ± 0.3% for 10 h* | 22 ± 4.4% for 10 h* | percentage of dissociated biotin conjugate after 10 h incubation with excess biotin (biotin-DNA; 37° C., listed as streptavidin): about 20%; Dissociation rate (biotin-GFP; 45° C., excess biotin): 1.9 ± 0.2 × 10^−5 s^−1; incubation time after which avidin protein was internalized (HeLa cells): 10 min |
| Neutravidin (NA): tetrameric neutravidin (Pierce) [reference compound] | 11 ± 4.4% for 10 h* | 20 ± 0.2% for 10 h* | 6.8 ± 1.6% for 10 h* | 16 ± 3.8% for 10 h* | percentage of dissociated biotin conjugate after 10 h incubation with excess biotin (biotin-DNA; 37° C., listed as neutravidin): about 20%; percentage of dissociated biotin conjugate after 10 h incubation with excess biotin (biotin-GFP; 45° C.): 32 ± 5.0% for 10 h* |
| O=C(O)CCCC[C@@H]1SC[C@@H]2NC(=O)N[C@@H]21 [biotin] | – | – | – | – | Kd [2]: 0.031 ± 0.01 nM |
| O=C(O)CCCC[C@@H]1SC[C@@H]2NC(=O)N[C@@H]21 [[^3H]biotin] [listing 2 of 2 here] | – | – | – | – | Kd [3]: 0.0069 nM |
